System: mdx triangularis sterni (TS) muscle
Assay: Percent fibers and percent striated fibers in photographed areas of fixed mdx TS muscle
Assay type: in vivo, mdx mice
Protocol: To evaluate the effect of various chemical agents on animal models of MD, experimental male and female mdx mice may be injected intraperitoneally (ip) with various chemicals at different dosage. In the case of pyrrolidine dithiocarbamate (PDTC) (50-75 mg/kg of PDTC (obtained from Sigma) may be dissolved in a saline solution (HEPES-Ringer; in mM: 147.5 NaCl, 5 KCl, 2 CaCl2, 11 glucose, 5 HEPES, pH 7.35) for injection. […] The mice may be sacrificed after 1-24 months from the beginning of treatment to determine the effect of the treatment with the chemicals.
In one embodiment, the treatment effect may be evaluated by comparing the morphological results between 3 regions of the triangularis sterni (TS); the caudal third of the muscle extending toward the xiphoid process, the middle third, and the cephalad third of the muscle. This procedure is adopted because there are obvious differences between these regions in the extent of pathology and the muscle thickness in the mdx TS (not clearly seen in the nondystrophic TS) even when examining the muscle at low power (e.g., 4×). Results from animals that die during the experimental time frame (both saline injected and PDTC treated) are typically excluded from the study.
Morphological assessment of total fiber density and density of striated fibers may be conducted as described in the following text. Immediately after completing the resting potential measurements, the minimally stretched TS muscle preparations attached to the dissecting hooks may be fixed overnight in 2% glutaraldehyde (0.1 M cacodylate buffer) and subsequently washed several times in 0.1 M cacodylate. Before removing the preparation from the recording chamber, microphotographs of approximately 24 randomly sampled areas may be obtained at 200-300× magnification in caudal, middle, and cephalad regions of the TS. In the initial studies, a smaller number of photographs may be obtained over the middle portion of the TS muscle.
Each preparation may be illuminated using bright-field optics to minimize depth of focus issues in visualizing muscle fiber striations. Since the mdx TS muscle is a flat and thin preparation, all the fibers in each area are roughly within the same focal plane. However, small variations in depth of focus may produce small variations in the appearance of striated fibers. Such effects may be minimized by routinely adjusting the plane of focus to maximize the number of striated fibers in each photographed area. The density of muscle fibers and the density of striated fibers may then be evaluated for each sampled area by drawing a line orthogonal to the principal axis of the TS muscle fibers across the entire viewing area of each photograph. The percentage of the length of this line that covered muscle fibers and the percentage of this line that covered striated muscle fibers (defined as having striations over at least 50% of the observed length) may be used to determine the percentage of muscle fibers and striated muscle fibers, respectively, for each photographed muscle area. Control experiments using these procedures on adult nondystrophic TS muscles (N=37 areas, 2 TS muscles at 19 and 27 months) may yield average values of 99.1±0.5 (SE) percent fibers and 96.7±1.2 percent striated fibers with no regional differences across the caudal, middle, and cephalad thirds of the muscle (FIG. 3).
In freshly isolated preparations of mdx TS muscle, hypercontraction and myofibrillar disorganization are expressed as a decrease in the appearance of striated muscle fibers (See e.g., FIG. 2A) and fiber loss and fibrosis appear as a decrease in the number of fibers in individual areas of the TS (See e.g., FIG. 2B; cf. Carlson et al., 2003 and Cullen and Fulthorpe, 1975). […]

## S=C(S)N1CCCC1 [PDTC, pyrrolidine dithiocarbamate]
50 mg/kg ip 48-76 days, Series 2 (11.5-18.5 months) and Series 3 (21.5-22 months)
  density of fibers in the TS: increases
Series 1, vs untreated, P<0.01
  increase in the percentage of striated muscle fibers: 3 fold
Series 1: 50-75 mg/kg ip daily 27-30 days, 8.5-9 months at sacrifice, middle region, FIG. 2C
  striated fibers in photographed area: approximately 82%
Series 1: 50-75 mg/kg ip daily 27-30 days, same in untreated
  average percent fibers: about 80%
Series 1: 50-75 mg/kg ip, 27-30 days, 8.5-9 months at sacrifice
  density of striated fibers: increases
Series 2: 50 mg/kg daily, 11.5-18.5 months at sacrifice, middle third, P<0.01 vs saline
  increase in the percent of fibers: 1.7 fold
Series 2, P<0.05 vs saline
  overall percent of fibers across all regions: significant increase
Series 2, middle region, P<0.01 vs saline
  increased percent of striated fibers: 8.4 fold
Series 3 (22 months), caudal, middle and overall total of sampled areas
  increase in the percent of striated fibers: 22- to 68 fold
Series 3: aged mdx mice (22 months), 50 mg/kg daily, across all regions, P<0.01 or P<0.001
  increases in the density of muscle fibers: 4.1- to 11.1 fold
Series 4: individual mdx mouse, 50 mg/kg on 238 of 258 days, 13.5 months of age, N=25
  overall percent fibers: 82.2±2.6%
Series 4: individual mdx mouse, 50 mg/kg on 238 of 258 days, 13.5 months of age, N=25 areas
  overall percent striated fibers: 40.4±2.6%
Series 4: longer administration beginning in 5 month mdx mice, middle and cephalad regions, P<0.001
  effect of treatment on the percent of striated fibers: significant effect
Daily PDTC, Series 2 and Series 3
  density of striated TS fibers: increases
